# Measured values as given in patent US4258046A, “Pyrano-heterocycles and medicaments containing these compounds” (Hoechst Aktiengesellschaft, priority 1978, dated 1981).
# Where a name gives a salt, the structure may show the parent alone.
# Legend:
# [1] = test system: passive cutaneous anaphylaxis (PCA) in rats; test: Inhibition of passive cutaneous anaphylaxis (PCA) in rats on intravenous treatment; assay type: in vivo, Sprague-Dawley rats; details: i.v., antiserum dilution 1:16
# Description: (§1) The antiserum is directed against ovalbumine and is induced in rats by combined administration of ovalbumine with Bordetella pertussis as adjuvant and boostering with Nippostrongylus larvae. 72 hours after the intracutaneous administration of the antiserum, the intravenous injection of the antigen consisting of a mixture of each time 25 mg/kg of ovalbumine and Evans blue is effected, in order to trigger the cutaneous anaphylactic reaction. The compounds of the formula I or their salts are administered, if intravenously, directly before the injection of the ovalbumine-dyestuff mixture and if administered orally, 30 minutes before the administration of the ovalbumine-dyestuff mixture. 10 Minutes after the ovalbumine-dyestuff injection, the animals are sacrificed and the diameter of spreading of the dyestuff is measured in the hypodermis.
# (§2) As comparative substance, the standard preparation di- sodium-chromoglycate(DSCG) is used.
# [2] = test system: passive cutaneous anaphylaxis (PCA) in rats; test: Inhibition of passive cutaneous anaphylaxis (PCA) in rats on oral treatment; assay type: in vivo, Sprague-Dawley rats
# Description: The compounds of the invention of the formula I and their salts have strong antiallergic properties and are well tolerated on intravenous as well as oral administration in the models of passive cutaneous anaphylaxis (P C A) to rats.
# as §1, with “According to the method described by J. Goose and A. M. J. N. Blair, Immunology 16, 749 (1969) a P C A is made ready on Sprague-Dawley rats by intracutaneous administration of homologous antiserum, 0.1 ml of a dilution of 1:16 and 1:32 in both flanks. The antiserum” for “The antiserum”
# as §2
# [3] = 10.0 mg/kg, antiserum dilution 1:16
# [4] = 10.0 mg/kg, antiserum dilution 1:32
Structure (SMILES),% Inhibition against control ([1]; 0.1 mg/kg) [%],% Inhibition against control ([1]; 0.3 mg/kg) [%],% Inhibition against control ([1]; 1.0 mg/kg) [%],% Inhibition against control ([1]; 3.0 mg/kg) [%],% Inhibition against control ([1]; 0.03 mg/kg) [%],other results
"O=C(O)c1cc(=O)c2c(OCC(O)COc3cccc4oc(C(=O)O)cc(=O)c34)cccc2o1 [DSCG, di- sodium-chromoglycate, reference compound]",9,34,71,–,–,"activity when administered orally [2]: orally inactive; % Inhibition against control [2, 3]: 0%; % Inhibition against control [2, 4]: 0%; % Inhibition against control ([2]; 30.0 mg/kg, antiserum dilution 1:16): 5%; % Inhibition against control ([2]; 30.0 mg/kg, antiserum dilution 1:32): 0%"
"O=c1oc2c(c(O)c1[N+](=O)[O-])c(=O)n1c3c(cc(Cl)cc23)CCC1 [Example 24, 11-Chloro-7,8-dihydro-3-nitro-2,5-dioxo-2H,5H,9H-benzo-[ij]pyrano[2,3-b]quinolizine-4-ol-sodium salt]",12,50,89,100,–,"% Inhibition against control ([2]; 0.3 mg/kg, antiserum dilution 1:16): 22%; % Inhibition against control ([2]; 0.3 mg/kg, antiserum dilution 1:32): 27%; % Inhibition against control ([2]; 1.0 mg/kg, antiserum dilution 1:16): 50%; % Inhibition against control ([2]; 1.0 mg/kg, antiserum dilution 1:32): 73%; % Inhibition against control ([2]; 3.0 mg/kg, antiserum dilution 1:16): 44%; % Inhibition against control ([2]; 3.0 mg/kg, antiserum dilution 1:32): 73%; % Inhibition against control [2, 3]: 44%; % Inhibition against control [2, 4]: 73%"
"Cn1c(=O)c2c(O)c([N+](=O)[O-])c(=O)oc2c2cc(Cl)ccc21 [Example 25, 9-Chloro-5,6-dihydro-6-methyl-3-nitro-2,5-dioxo-2H-pyrano[3,2-c]quinoline-4-ol]",100,–,–,–,67,% Inhibition against control ([1]; 0.01 mg/kg): 44%
"CCn1c(=O)c2c(O)c([N+](=O)[O-])c(=O)oc2c2cc(Cl)ccc21 [Example 30, 6-Ethyl-9-chloro-5,6-dihydro-3-nitro-2,5-dioxo-2H-pyrano[3,2-c]-quinoline-4-ol]",88,100,–,–,50,–
"CCn1c(=O)c2c(O)c([N+](=O)[O-])c(=O)oc2c2cc(F)ccc21.[Na] [Example 31, 6-Ethyl-9-fluoro-5,6-dihydro-3-nitro-2,5-dioxo-2H-pyrano[3,2-c]quinoline-4-ol-sodium salt]",80,87,–,100,60,% Inhibition against control ([1]; 0.01 mg/kg): 27%
"CCn1c(=O)c2c(O)c([N+](=O)[O-])c(=O)oc2c2cc(C(F)(F)F)ccc21 [Example 32, 6-Ethyl-5,6-dihydro-3-nitro-2,5-dioxo-9-trifluoromethyl-2H-pyrano[3,2-c]quinoline-4-ol]",69,75,–,100,19,–
"CCn1c(=O)c2c(O)c([N+](=O)[O-])c(=O)oc2c2cc(Cl)c(Cl)cc21 [Example 35, 6-Ethyl-8,9-dichloro-5,6-dihydro-3-nitro-2,5-dioxo-2H-pyrano[3,2-c]quinoline-4-ol]",20,53,73,–,–,% Inhibition against control ([1]; 30.0 mg/kg): 100%
